In brackets after ≈: the same amount, converted by molar mass.
Assays:
[1] = Table S2, PAMPA-BBB, drugs used as standard; cited from earlier work
[2] = Parallel artificial membrane permeability assay, blood-brain barrier (PAMPA-BBB); conditions: for PAMPA-BBB Score: porcine brain lipid membrane
Experimental: In a 5 mL glass vial, 1 mg of each compound (test or control) was dissolved in 1 mL of ethanol. Then, 500 μL of ethanol and 3.5 mL of PBS at pH 7.4 were added to this solution. […] After 5 min, the donor plate received 180 μL of each compound solution in triplicate. […] The experiments were performed in triplicate with two different analyses (n = 2).

[3] = design: method as in ZHU et al., 2002; conditions: Table S1, PAMPA-GTI, drugs used as standard; ref ZHU et al., 2002; cited from earlier work
[4] = biological target: CB2 receptor; design: method as in PMID 22172309; conditions: cited from earlier work; for Ki: CB2 receptor
[5] = tested on: CB1 receptors; design: method as in PMID 22172309; conditions: cited from earlier work
[6] = Parallel artificial membrane permeability assay, gastrointestinal (PAMPA-GI / PAMPA-GTI); conditions: for Pe Exp / Classification / Fa: Table S1, PAMPA-GTI; for Fa / PAMPA-GI Fa Exp: absorbed fraction; for Papp at 8 h, 0.5 mM: PAMPA; for PAMPA-GI Fa Exp: soybean L-α-phosphatidylcholine membrane
Experimental: A 10 mM solution of each compound (tests and controls) was prepared in DMSO. Then, in a 5 mL glass flask, 250 µL of the freshly prepared solution was homogenized with 4750 µL of PBS at pH 6.6 to a concentration of 10 mM. The solution was then filtered in a 0.45 µm PVDF filter and set aside. Then, 180 µL of a solution of phosphate-bufffered saline (PBS, pH 7.4):DMSO (95:5) was added to the wells of the receptor plate, and 5 µL of the soy L-α-phosphatidylcholine lipid solution (20 mg/mL in dodecane) was added to the wells of the donor plate. After 5 min, the donor plate received 180 µL of the reserved solution containing each compound. […] After this period, the donor plate was removed, and the contents of the recipient plate were transferred to a UV reading plate and read (SpectraMax 5, Molecular Devices) at the maximum wavelengths for each compound. The blank was prepared with 180 µL of PBS solution (pH 7.4):DMSO (95:5). The experiments were carried out in triplicate with two different analyses (n = 2) [37]. The optical density values obtained from the readings at each selected wavelength for each of the compounds were analyzed by comparison with the values of the controls. These values were used to determine the absorbed fraction (Fa %) using the JMP® program version 10.0.

[7] = Distribution coefficient at pH 7.4 (shake-flask, octanol/phosphate buffer); type: physicochemical; conditions: 1-octanol/buffer pH 7.4; n-octanol/buffer partitioning at pH 7.4, UV method; read-out: Log D7.4
Experimental: The assay was performed based on the shake-flask method and the absorbance readings by ultraviolet spectroscopy at maximum absorbance wavelength. To a Falcon tube with a capacity of 15 mL, 5 mL of buffer solution at pH 7.4 and 5 mL of 1-octanol were added. Then, the tested compounds were added at defined concentrations of approximately 10–15 µM, and the mixtures were homogenized via vigorous manual shaking. Next, the Falcon tubes were stirred for 4 h at 37 °C, and the experiment was carried out in triplicate for each compound. Subsequently, each sample was placed in a separatory funnel, and the collected aqueous phase was filtered through a 0.45 µm PVDF filter and transferred to a quartz cuvette (10 mm optical path) for UV/Vis reading. The distribution coefficient of each compound at pH 7.4 was determined by linear regression using the straight-line equation [33].

[8] = tested on: plasma carboxylesterases; assay: Plasma stability against enzymatic hydrolysis; type: in vitro ADME, Wistar rats; conditions: rat plasma, determined after 240 min
Experimental: For the evaluation of plasma stability against plasma carboxylesterases, a pool of plasma male Wistar rats weighing 300–360 g kept in the vivarium of the Laboratory of Biochemical and Molecular Pharmacology-UFRJ was used. Blood was collected with heparin and kept on ice. Then, the samples were centrifuged at 2000 rpm for 15 min at 20 °C, with subsequent removal of the plasma. The plasma was then diluted 80% (v/v) with phosphate buffer (PBS; pH = 7.4) at 37 °C. The experiments performed in this work were approved by the Ethics Committee on the Use of Animals in Scientific Experiments of the Health Sciences Center of the Federal University of Rio de Janeiro (Number 028/15). The biological matrix was incubated at 37 °C under agitation for 30, 60, 120, and 240 min. The degree of degradation was evaluated by HPLC-PDA with methyl 1,1′bisphenyl-4-carboxylate as an internal standard (PI), using an isocratic mobile phase of 70%:30% acetonitrile:water (0–15 min), an injection volume of 20 μL, a flow rate of 1 mL/min, and detection at 254 nm.

[9] = Aqueous solubility (thermodynamic, UV spectroscopy); type: physicochemical; conditions: aqueous buffer, thermodynamic from solid, phosphate buffer pH 7.4, 37 °C
Experimental: The test was performed based on the absorbance obtained by ultraviolet spectroscopy. The scanning wavelength was determined according to the highest absorbance observed for each compound. Saturated aqueous solution of the analyzed compounds were stirred for 4 h at 37 °C, and then filtered through a 0.45 µm PVDF filter and transferred to a quartz cuvette (10 mm optical path) for reading. Solubility was determined by linear regression based on the equation of the line.

[10] = tested on: formalin-induced licking behavior in mice; assay: Formalin-induced licking behavior; type: in vivo, Swiss Webster mice; conditions: morphine 2.5 mg/kg i.p., ASA 200 mg/kg p.o., LASSBio-2265 1, 3 and 10 mg/kg p.o., compared to vehicle
Experimental: This assay was performed as described by Hunskaar et al. and adapted by Gomes et al.. This model was characterized by a response that occurred in two phases. The first phase (acute neurogenic pain) occurred during the first 5 min after the intraplantar injection of formalin, and the second phase (inflammatory pain) occurred 15 to 30 min post-injection. Mice were pretreated with oral doses of LASSBio-2265 (11, at 1, 3 or 10 mg/kg, p.o.), morphine (2.5 mg/kg, i.p.), acetylsalicylic acid (ASA, 200 mg/kg, p.o.), or the vehicle (same amount of DMSO used to solubilize the substances + NaCl 0.9%) 60 min before the administration of formalin. […] Then, mice (n = 7 per group) received 20 μL of formalin (2.5% v/v) in the dorsal surface of the left hind paw. The time that the mice spent licking the injected paw was immediately recorded. […] The final volume administered to mice was 0.1 mL.

[11] = PAMPA, 2.75 h, 0.2 mg/mL, pH 7.4

CC(C)NCC(O)COc1ccc(CC(N)=O)cc1 (centres unmarked) [Atenolol, reference compound]
Pe literatura [1]: 0,8 10-6 cm s-1 | Pe experimental [2, 11]: 0,46 10-6 cm s-1 | Classification ([2]; Table S2, PAMPA-BBB): CNS - | Pe Lit [3]: 0,1 10-6cm/s

CCCCC/C=C\C/C=C\C/C=C\C/C=C\CCCC(=O)Nc1c(C)n(C)n(-c2ccccc2)c1=O [Compound 5]
Ki [4]: 5.4 µM | Affinity for CB2 receptors [4]: micromolar affinity | Affinity for CB1 receptors [5]: micromolar affinity

C[C@]12C=CC(=O)C=C1CC[C@@H]1[C@@H]2C(=O)C[C@@]2(C)[C@H]1CC[C@]2(O)C(=O)CO [Prednisone, reference compound]
Pe Exp [6]: 3,09 10-6 cm/s

CC(=O)N1CCN(c2ccc(OCC3COC(Cn4ccnc4)(c4ccc(Cl)cc4Cl)O3)cc2)CC1 (centres unmarked) [Ketoconazole, reference compound]
Classification [6]: HIGH (high intestinal permeability: >70%) | Pe Exp [6]: 4,93 10-6 cm/s | Fa [6]: 84,68% | Pe Lit [3]: 3,3 10-6cm/s

Cc1c(NC(=O)C(C)c2ccc(CC(C)C)cc2)c(=O)n(-c2ccccc2)n1C (centres unmarked) [Compound 7, N-(1,5-dimethyl-3-oxo-2-phenyl-2,3-dihydro-1H-pyrazol-4-yl)-2-(4-isobutylphenyl) propanamide]
logD [7]: 2.47 | Plasma Metabolization Rate [8]: 56.13% | Papp at 8 h, 0.5 mM [6]: 15.4 ×10⁻⁶ cm/s | Classification [6]: HIGH (high intestinal permeability: >70%) | Pe Exp [6]: 15,38 10-6 cm/s | Fa [6]: 99,71% | PAMPA-GI Fa Exp [6]: 99.71% | solubility at 4 h [9]: 12.1 µM (≈ 4.75 µg/mL) | Papp at 2.75 h, 0.2 mg/mL ([2]; PAMPA, pH 7.4): 12.8 ×10⁻⁶ cm/s | Classification ([2]; Table S2, PAMPA-BBB): CNS + | Pe experimental ([2]; Table S2, PAMPA-BBB): 12,77 10-6 cm s-1 | PAMPA-BBB Score [2]: CNS+ (CNS+ (high predicted BBB permeability) Pe > 4.0 × 10^−6 cm/s) | melting point: 151.2 °C

CN1CC[C@]23c4c5ccc(O)c4O[C@H]2[C@@H](O)C=C[C@H]3[C@H]1C5 [morphine, reference compound]
Analgesia in the first phase of the formalin test [10]: promoted significant analgesia

CCn1cc(C(=O)O)c(=O)c2cc(F)c(N3CCNCC3)nc21 [Enoxacin, reference compound]
Pe literatura [1]: 0,9 10-6 cm s-1 | Pe experimental [2, 11]: 0,53 10-6 cm s-1 | Classification ([2]; Table S2, PAMPA-BBB): CNS -

Cc1c(N(C)C(=O)C(C)c2ccc(CC(C)C)cc2)c(=O)n(-c2ccccc2)n1C (centres unmarked) [Compound 10, N-(1,5-dimethyl-3-oxo-2-phenyl-2,3-dihydro-1H-pyrazol-4-yl)-2-(4-isobutylphenyl)-N-methylpropanamide]
logD [7]: 2.43 | Plasma Metabolization Rate [8]: 32.50% | Papp at 8 h, 0.5 mM [6]: 2.51 ×10⁻⁶ cm/s | Classification [6]: HIGH (high intestinal permeability: >70%) | Pe Exp [6]: 9,15 10-6 cm/s | Fa [6]: 96,91% | solubility at 4 h [9]: 47.7 µM (≈ 19.3 µg/mL) | Papp at 2.75 h, 0.2 mg/mL ([2]; PAMPA, pH 7.4): 12.7 ×10⁻⁶ cm/s | Classification ([2]; Table S2, PAMPA-BBB): CNS + | Pe experimental ([2]; Table S2, PAMPA-BBB): 12,68 10-6 cm s-1 | PAMPA-BBB Score [2]: CNS+ (CNS+ (high predicted BBB permeability) Pe > 4.0 × 10^−6 cm/s)

O=C(O)Cc1ccccc1Nc1c(Cl)cccc1Cl [Diclofenac, reference compound]
Pe Lit [3]: 12,5 10-6cm/s

O=C(O)c1cc(/N=N/c2ccc(S(=O)(=O)Nc3ccccn3)cc2)ccc1O [Sulfassalazine]
Pe Lit [3]: 0,3 10-6cm/s

CN1C(=O)CN=C(c2ccccc2)c2cc(Cl)ccc21 [Diazepam, reference compound]
Pe literatura [1]: 16 10-6 cm s-1 | Classification ([2]; Table S2, PAMPA-BBB): CNS + | Pe experimental ([2]; Table S2, PAMPA-BBB): 14,30 10-6 cm s-1

CNC(=C[N+](=O)[O-])NCCSCc1ccc(CN(C)C)o1 [Ranitidine, reference compound]
Classification [6]: LOW (low intestinal permeability: <29%) | Pe Exp [6]: 0,38 10-6 cm/s | Fa [6]: 13,48%

Cn1c(=O)c2c(ncn2C)n(C)c1=O [Caffeine, reference compound]
Pe literatura [1]: 1,3 10-6 cm s-1 | Pe experimental [2, 11]: 0,81 10-6 cm s-1 | Classification ([2]; Table S2, PAMPA-BBB): CNS -

Cc1c(NC(=O)C(C)c2ccc(-c3ccccc3)c(F)c2)c(=O)n(-c2ccccc2)n1C (centres unmarked) [Compound 8, N-(1,5-dimethyl-3-oxo-2-phenyl-2,3-dihydro-1H-pyrazol-4-yl)-2-(2-fluoro-[1,1^′-biphenyl]-4-ylil) propanamide]
logD [7]: 1.94 | Plasma Metabolization Rate [8]: 18.66% | Papp at 8 h, 0.5 mM [6]: 9.69 ×10⁻⁶ cm/s | Classification [6]: HIGH (high intestinal permeability: >70%) | Pe Exp [6]: 9,69 10-6 cm/s | Fa [6]: 97,49% | PAMPA-GI Fa Exp [6]: 97.49% | solubility at 4 h [9]: 59.1 µM (≈ 25.4 µg/mL) | Papp at 2.75 h, 0.2 mg/mL ([2]; PAMPA, pH 7.4): 17.2 ×10⁻⁶ cm/s | Classification ([2]; Table S2, PAMPA-BBB): CNS + | Pe experimental ([2]; Table S2, PAMPA-BBB): 17,25 10-6 cm s-1 | PAMPA-BBB Score [2]: CNS+ (CNS+ (high predicted BBB permeability) Pe > 4.0 × 10^−6 cm/s) | melting point: 214.8 °C

CCCCC/C=C\C/C=C\C/C=C\C/C=C\CCCC(=O)N(C)c1c(C)n(C)n(-c2ccccc2)c1=O [Compound 6]
Ki [4]: 3 µM | Affinity for CB2 receptors [4]: micromolar affinity | Affinity for CB1 receptors [5]: micromolar affinity

CC(=O)Oc1ccccc1C(=O)O [acetylsalicylic acid, reference compound]
Analgesia in the first phase of the formalin test [10]: only morphine (2.5 mg/kg) promoted significant analgesia | Classification [6]: AVERAGE (medium intestinal permeability: 30–69%) | Pe Exp [6]: 1,69 10-6 cm/s | Fa [6]: 47,36% | Pe Lit [3]: 3,8 10-6cm/s

Nc1nc2c(ncn2COCCO)c(=O)[nH]1 [Acyclovir, reference compound]
Pe Exp [6]: 0,08 10-6 cm/s

O=c1ccc2ccccc2o1 [Coumarin, reference compound]
Classification [6]: HIGH (high intestinal permeability: >70%) | Pe Exp [6]: 22,65 10-6 cm/s | Fa [6]: 99,98%

Cc1c(NC(=O)Cc2ccc(-c3ccccc3)cc2)c(=O)n(-c2ccccc2)n1C [Compound 9, 2-([1,1’-biphenyl]-4-yl)-N-(1,5-dimethyl-3-oxo-2-phenyl-2,3-dihydro-1H-pyrazol-4-yl) acetamide]
logD [7]: 2.14 | Plasma Metabolization Rate [8]: 24.56% | Papp at 8 h, 0.5 mM [6]: 11 ×10⁻⁶ cm/s | Classification [6]: HIGH (high intestinal permeability: >70%) | Pe Exp [6]: 11,00 10-6 cm/s | Fa [6]: 98,47% | PAMPA-GI Fa Exp [6]: 98.47% | solubility at 4 h [9]: 21.3 µM (≈ 8.47 µg/mL) | Papp at 2.75 h, 0.2 mg/mL ([2]; PAMPA, pH 7.4): 4.51 ×10⁻⁶ cm/s | Classification ([2]; Table S2, PAMPA-BBB): CNS + | Pe experimental ([2]; Table S2, PAMPA-BBB): 4,51 10-6 cm s-1 | PAMPA-BBB Score [2]: CNS+ (CNS+ (high predicted BBB permeability) Pe > 4.0 × 10^−6 cm/s) | melting point: 221.8 °C
